Among the data in patent US9169260B2 (MERCK SHARP & DOHME CORP., priority 2011, dated 2015) are IC50 values, retold here.

Some results are limits rather than exact numbers.

GST tagged IRAK-4, sequence (Q9NWZ3 whole entry): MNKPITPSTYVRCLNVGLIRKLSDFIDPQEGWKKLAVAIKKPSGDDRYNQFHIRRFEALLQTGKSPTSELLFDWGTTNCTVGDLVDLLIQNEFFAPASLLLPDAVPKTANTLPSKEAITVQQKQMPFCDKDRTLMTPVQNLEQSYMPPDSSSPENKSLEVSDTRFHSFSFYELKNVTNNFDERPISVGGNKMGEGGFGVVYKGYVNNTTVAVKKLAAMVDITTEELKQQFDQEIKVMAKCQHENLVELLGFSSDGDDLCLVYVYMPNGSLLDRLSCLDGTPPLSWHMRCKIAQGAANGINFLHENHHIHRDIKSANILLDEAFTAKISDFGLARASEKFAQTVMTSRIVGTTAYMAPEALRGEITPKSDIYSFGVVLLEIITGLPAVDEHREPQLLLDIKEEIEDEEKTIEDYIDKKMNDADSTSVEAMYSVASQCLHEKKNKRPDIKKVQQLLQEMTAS

The first experiment addresses GST tagged IRAK-4 (Homo sapiens (Human), UniProt Q9NWZ3). Nature of the experiment: IRAK-4 Kinase Assay (IMAP fluorescence polarization). The format is biochemical. Particulars: 100 μM ATP, 30 minutes at 25° C. The method in brief: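 Activity was read by IMAP fluorescence polarization, where phosphopeptide binding to M(III) nanoparticles raises FP. The 30-minute, 25° C reaction used 100 μM ATP, 100 nM RP7030 substrate and 0.5 nM GST-IRAK-4 in pH 7.2 Tris buffer with MgCl2, DTT and Tween 20.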
For orientation: In fluorescence polarisation assays a small probe gives low polarisation when free and higher when bound to something large.
Usually IC50 stands for the point on the concentration scale where inhibition reaches its midpoint. Higher therefore signals a need for much substance. Regarding `Cc1ccc(-n2nc(C3CCN(C4CCC(C(F)(F)F)CC4)CC3)cc2NC(=O)c2cnn3cccnc23)nc1` (stereo not drawn) [Example 271, N-[1-(5-methylpyridin-2-yl)-3-{1-[4-(trifluoromethyl)cyclohexyl]piperidin-4-yl}-1H-pyrazol-5-yl]pyrazolo[1,5-a]pyrimidine-3-carboxamide], the IC50 is below 0.1 µM.

The compound `Cc1ccc(-n2nc(N3CCN(C4CCCCCC4)CC3)cc2NC(=O)c2cnn3cccnc23)nc1` [Example 322, N-[3-(4-cycloheptylpiperazin-1-yl)-1-(5-methylpyridin-2-yl)-1H-pyrazol-5-yl]pyrazolo[1,5-a]pyrimidine-3-carboxamide] returned an IC50 below 0.1 µM.

The compound `COc1ccc(-n2nc(C3CCN(S(=O)(=O)C4CC4)CC3)cc2NC(=O)c2cnn3cccnc23)c(F)c1` [Example 63, N-(3-(1-(cyclopropylsulfonyl)piperidin-4-yl)-1-(2-fluoro-4-methoxyphenyl)-1H-pyrazol-5-yl)pyrazolo[1,5-a]pyrimidine-3-carboxamide] registered an IC50 below 0.1 µM.

On to `Cc1ccc(-n2nc(-c3ccc(CN4CCOCC4)cc3)cc2NC(=O)c2cnn3cccnc23)cc1` [Example 145, N-(3-(4-(morpholinomethyl)phenyl)-1-(p-tolyl)-1H-pyrazol-5-yl)pyrazolo[1,5-a]pyrimidine-3-carboxamide], for which the IC50 was below 0.1 µM.

As for `CC(C)N1CCC(c2cc(NC(=O)c3cnn4cccnc34)n(-c3ccc(C4CC4)cc3F)n2)CC1` [Example 74, N-(1-(4-cyclopropyl-2-fluorophenyl)-3-(1-isopropylpiperidin-4-yl)-1H-pyrazol-5-yl)pyrazolo[1,5-a]pyrimidine-3-carboxamide], the 50% inhibitory concentration (IC50) is below 0.1 µM.

For `Cc1ccc(-n2nc(C3CCN(C4CCN(C)CC4)CC3)cc2NC(=O)c2cnn3cccnc23)nc1` [Example 275, N-[3-(1′-methyl-1,4′-bipiperidin-4-yl)-1-(5-methylpyridin-2-yl)-1H-pyrazol-5-yl]pyrazolo[1,5-a]pyrimidine-3-carboxamide], the half-inhibitory concentration (IC50) was below 0.1 µM.

As to `Cc1ccc(-n2nc(C3CCN(C4CCC(N(C)S(C)(=O)=O)CC4)CC3)cc2NC(=O)c2cnn3cccnc23)cc1` (stereo not drawn) [Example 251, N-[3-(1-{4-[methyl(methylsulfonyl)amino]cyclohexyl}piperidin-4-yl)-1-(4-methylphenyl)-1H-pyrazol-5-yl]pyrazolo[1,5-a]pyrimidine-3-carboxamide], the half-maximal inhibitory concentration (IC50) was below 0.1 µM.

`Cc1ccc(-n2nc(C3CCN(S(C)(=O)=O)CC3)cc2NC(=O)c2cnn3cccnc23)nc1` [Example 153, N-(1-(5-methylpyridin-2-yl)-3-(1-(methylsulfonyl)piperidin-4-yl)-1H-pyrazol-5-yl)pyrazolo[1,5-a]pyrimidine-3-carboxamide]: the concentration for half-maximal inhibition (IC50) was below 0.1 µM.

Consider `Cc1ccc(-n2nc(C3CCN(C4CCC(NS(C)(=O)=O)CC4)CC3)cc2NC(=O)c2cnn3cccnc23)cc1` (stereo not drawn) [Example 252, N-[1-(4-methylphenyl)-3-(1-{4-[(methylsulfonyl)amino]cyclohexyl}piperidin-4-yl)-1H-pyrazol-5-yl]pyrazolo[1,5-a]pyrimidine-3-carboxamide], for which the 50% inhibitory concentration (IC50) is below 0.1 µM.

The compound `CS(=O)(=O)N1CCC(c2cc(NC(=O)c3cnn4cccnc34)n(-c3ccc(C4CC4)cn3)n2)CC1` [Example 149, N-(1-(5-cyclopropylpyridin-2-yl)-3-(1-(methylsulfonyl)piperidin-4-yl)-1H-pyrazol-5-yl)pyrazolo[1,5-a]pyrimidine-3-carboxamide] showed an IC50 below 0.1 µM.

`Cc1ccc(-n2nc(C3CCN(C4CCc5ccncc5C4)CC3)cc2NC(=O)c2cnn3cccnc23)nc1` (stereo not drawn) [Example 268, N-{1-(5-methylpyridin-2-yl)-3-[1-(5,6,7,8-tetrahydroisoquinolin-7-yl)piperidin-4-yl]-1H-pyrazol-5-yl}pyrazolo[1,5-a]pyrimidine-3-carboxamide] returned an IC50 below 0.1 µM.

The same experiment, now with this note: 100 μM ATP, 30 minutes at 25° C.; μM.
As for `Cc1ccc(-n2nc(C3CN(S(=O)(=O)C4CCCC4)C3)cc2NC(=O)c2cnn3cccnc23)cc1` [Example 85, N-(3-(1-(cyclopentylsulfonyl)azetidin-3-yl)-1-(p-tolyl)-1H-pyrazol-5-yl)pyrazolo[1,5-a]pyrimidine-3-carboxamide], the concentration for half-maximal inhibition (IC50) is below 1 µM.

`Cc1ccc(-n2nc(C3CCN(C4CN(C(=O)OCCF)C4)CC3)cc2NC(=O)c2cnn3cccnc23)cc1` [Example 241, 2-fluoroethyl 3-(4-{1-(4-methylphenyl)-5-[(pyrazolo[1,5-a]pyrimidin-3-ylcarbonyl)amino]-1H-pyrazol-3-yl}piperidin-1-yl)azetidine-1-carboxylate]: the IC50 was below 1 µM.

The compound `Cc1ccc(-n2nc(C3CCN(C(=O)CO)CC3)cc2NC(=O)c2cnn3cc(Br)cnc23)cc1` [Example 112, 6-bromo-N-(3-(1-(2-hydroxyacetyl)piperidin-4-yl)-1-(p-tolyl)-1H-pyrazol-5-yl)pyrazolo[1,5-a]pyrimidine-3-carboxamide] displayed a concentration for half-maximal inhibition (IC50) below 1 µM.

The compound `Cc1ccc(-n2nc(-c3ccc(N)cc3)cc2NC(=O)c2cnn3cccnc23)cc1` [Example 102, N-(3-(4-aminophenyl)-1-(p-tolyl)-1H-pyrazol-5-yl)pyrazolo[1,5-a]pyrimidine-3-carboxamide] had an IC50 below 1 µM.

Turning to `O=C(Nc1cc(C2CCNCC2)nn1-c1ccc(Br)cc1F)c1cnn2cccnc12` [Example 70, N-(1-(4-bromo-2-fluorophenyl)-3-(piperidin-4-yl)-1H-pyrazol-5-yl)pyrazolo[1,5-a]pyrimidine-3-carboxamide], the IC50 was below 1 µM.

Take `Cc1ccc(-n2nc(C3CCN(S(=O)(=O)c4ccc(Cl)s4)CC3)cc2NC(=O)c2cnn3cccnc23)cc1` [Example 393, N-[3-{1-[(5-chlorothiophen-2-yl)sulfonyl]piperidin-4-yl}-1-(4-methylphenyl)-1H-pyrazol-5-yl]pyrazolo[1,5-a]pyrimidine-3-carboxamide]: the IC50 is above 1 µM.

`Cc1ccc(-n2nc(C3CCN(S(=O)(=O)c4cn(C)cn4)CC3)cc2NC(=O)c2cnn3cccnc23)cc1` [Example 376, N-[3-{1-[(1-methyl-1H-imidazol-4-yl)sulfonyl]piperidin-4-yl}-1-(4-methylphenyl)-1H-pyrazol-5-yl]pyrazolo[1,5-a]pyrimidine-3-carboxamide] showed an IC50 below 1 µM.

`COc1ccc(-c2cc(NC(=O)c3cnn4cccnc34)n(-c3ccc(C)cc3)n2)cc1` [Example 131, N-(3-(4-methoxyphenyl)-1-(p-tolyl)-1H-pyrazol-5-yl)pyrazolo[1,5-a]pyrimidine-3-carboxamide] returned an IC50 below 1 µM.

Take `Cc1ccc(-n2nc(C3CCN(C4CCN(C)CC4)CC3)cc2NC(=O)c2cnn3cccnc23)cc1` [Example 205]: the IC50 is above 1 µM.

The compound `Cc1ccc(-n2nc(C3CN(Cc4ncco4)C3)cc2NC(=O)c2cnn3cccnc23)cc1` [Example 316, N-{1-(4-methylphenyl)-3-[1-(1,3-oxazol-2-ylmethyl)azetidin-3-yl]-1H-pyrazol-5-yl}pyrazolo[1,5-a]pyrimidine-3-carboxamide] gave an IC50 below 1 µM.

`Cc1ccc(-n2nc(C3COCCN3)cc2NC(=O)c2cnn3cccnc23)cc1` (stereo not drawn) [Example 79, N-(3-(morpholin-3-yl)-1-(p-tolyl)-1H-pyrazol-5-yl)pyrazolo[1,5-a]pyrimidine-3-carboxamide] showed an IC50 below 1 µM.

Take `Cc1ccc(-n2nc(C3CCN(S(=O)(=O)c4cccc(F)c4)CC3)cc2NC(=O)c2cnn3cccnc23)cc1` [Example 379, N-[3-{1-[(3-fluorophenyl)sulfonyl]piperidin-4-yl}-1-(4-methylphenyl)-1H-pyrazol-5-yl]pyrazolo[1,5-a]pyrimidine-3-carboxamide]: the IC50 was below 1 µM.

Compound `Cc1ccc(-n2nc(C3CCN(S(C)(=O)=O)CC3)cc2NC(=O)c2cnn3cccnc23)nc1C` [Example 174, N-(1-(5,6-dimethylpyridin-2-yl)-3-(1-(methylsulfonyl)piperidin-4-yl)-1H-pyrazol-5-yl)pyrazolo[1,5-a]pyrimidine-3-carboxamide] registered an IC50 below 1 µM.

As for `Cc1ccc(-n2nc(-c3cncc(F)c3)cc2NC(=O)c2cnn3cccnc23)cc1` [Example 136, N-(3-(5-fluoropyridin-3-yl)-1-(p-tolyl)-1H-pyrazol-5-yl)pyrazolo[1,5-a]pyrimidine-3-carboxamide], the IC50 is above 1 µM.

The compound `CS(=O)(=O)N1CCC(c2cc(NC(=O)c3cnn4cccnc34)n(-c3ccc(Br)cc3F)n2)CC1` [Example 71, N-(1-(4-bromo-2-fluorophenyl)-3-(1-(methylsulfonyl)piperidin-4-yl)-1H-pyrazol-5-yl)pyrazolo[1,5-a]pyrimidine-3-carboxamide] gave an IC50 below 1 µM.

Take `O=C(Nc1cc(C2CCN(S(=O)(=O)C3CC3)CC2)nn1-c1ccc(C2CC2)cc1)c1cnn2cccnc12` [Example 54, N-(1-(4-cyclopropylphenyl)-3-(1-(cyclopropylsulfonyl)piperidin-4-yl)-1H-pyrazol-5-yl)pyrazolo[1,5-a]pyrimidine-3-carboxamide]: the IC50 is below 1 µM.

As for `Cc1ccc(-n2nc(C3CCNC(=O)CC3)cc2NC(=O)c2cnn3cccnc23)cc1` (stereo not drawn) [Example 4, N-(3-(7-oxoazepan-4-yl)-1-(p-tolyl)-1H-pyrazol-5-yl)pyrazolo[1,5-a]pyrimidine-3-carboxamide], the IC50 is below 1 µM.

`CC(=O)N1CC(N2CCC(c3cc(NC(=O)c4cnn5cccnc45)n(-c4ccc(C)cc4)n3)CC2)C1` [Example 248, N-{3-[1-(1-acetylazetidin-3-yl)piperidin-4-yl]-1-(4-methylphenyl)-1H-pyrazol-5-yl}pyrazolo pyrimidine-3-carboxamide]: the IC50 is below 1 µM.

With “methyl((4-(5-(pyrazolo[1,5-a]pyrimidine-3-carboxamido)-1-(p-tolyl)-1H-pyrazol-3-yl)cyclohexyl)methyl)carbamate [Example 183]”, the IC50 is below 1 µM.
